Source: patent US20260193236A1 (Protego Biopharma, Inc., priority 2022, published 2026)
Counter-ions that a name gives are not always drawn. Like-named read-outs stand apart in the source and are kept apart here.

Tested on: IRE1-XBP1s (XBP1-RLuc splicing reporter in HEK293 T-REx cells)
Experiment: IRE1-XBP1s activation assay (XBP1-RLuc splicing reporter, HEK293 T-REx cells, luminescence relative to thapsigargin)
Type: cell-based
Details: 18 h, read-out: Activity (IRE1-XBP1s activation, luminescence as % signal relative to thapsigargin, % Tg)
Description: IRE1-XBP1s activation Assay: HEK293 T-REx cells stably expressing the XBP1-RLuc splicing reporter were treated with an IRE1-XBP1s activator provided herein (10 μM) in the presence or absence of the IRE1 active site inhibitor 4μ8C (32 μM) for 18 h. Luminescence was shown as the percentage signal relative to thapsigargin (Tg) (500 nM, 18 h).

[1] = compound 10 μM, HEK293 T-REx XBP1-RLuc reporter cells, relative to thapsigargin (Tg) 500 nM

SMILES	activation at 10 µM [1]	activation at 10 µM
Cc1ccc(OCCN(C)C(=O)Cn2cc(NC(=O)CCOc3ccnc(Br)c3)cn2)cc1 [Compound 98]	> 50%	
Cc1ccc(OCCN(C)C(=O)Cn2cc(NC(=O)CCNc3ccc(F)nc3C)cn2)cn1 [Compound 243]	< 30%	
Cc1ccc(OC[C@@H](C)N(C)C(=O)Cn2cc(NC(=O)CCNc3ccnc(F)n3)cn2)cc1 [Compound 268]	> 50%	
Cc1ccc(OCCN(C)C(=O)Cn2cc(NC(=O)CCNc3ccc(O)nc3)cn2)cc1 [Compound 255]	< 30%	
COC(=O)Nc1cc(OCCC(=O)Nc2cnn(CC(=O)N(C)CCOc3ccc(C)cc3)c2)ccn1 [Compound 262]	30 to 50%	
Cc1ccc(OCCN(C)C(=O)Cn2cc(NC(=O)CCOc3c(C)ccnc3N)cn2)cc1 [Compound 17]	< 30%	
Cc1ccc(OC[C@H](C)N(C)C(=O)Cn2cc(NC(=O)CCNc3ccnc(F)n3)cn2)cc1 [Compound 264]	> 50%	
Cc1ccc(OCCN(C)C(=O)Cn2cc(NC(=O)CNC(=O)c3ncc(F)cn3)cn2)cc1 [Compound 249]	< 30%	
Cc1ccc(OC[C@@H](C)N(C)C(=O)Cn2cc(NC(=O)CCNc3ccnc(O)n3)cn2)cc1 [Compound 266]	< 30%	
[2H]C([2H])([2H])c1ccc(OCCN(C)C(=O)Cn2cc(NC(=O)CCNc3ccnc(F)n3)cn2)cc1 [Compound 222]	> 50%	
Cc1ccc(OCCC(=O)Nc2cnn(CC(=O)N(C)CCOc3ccc(C)c(Cl)c3)c2)c(F)c1 [Compound 76]	< 30%	
Cc1ccc(OCCN(C)C(=O)Cn2cc(NC(=O)CCOc3cccnc3NS(C)(=O)=O)cn2)cc1 [Compound 273, N-(1-(2-(methyl(2-(p-tolyloxy)ethyl)amino)-2-oxoethyl)-1H-pyrazol-4-yl)-3-((2-(methylsulfonamido)pyridin-3-yl)oxy)propanamide]	< 30%	
Cc1nc(F)ccc1NCCC(=O)Nc1cnn(CC(=O)N(C)CCOc2ccn(C)n2)c1 [Compound 242]	< 30%	
Cc1ccc(OC[C@H](C)N(C)C(=O)Cn2cc(NC(=O)CCOc3c(F)cccc3F)cn2)cc1 [Compound 81]	> 50%	
COc1cc(NCCC(=O)Nc2cnn(CC(=O)N(C)CCOc3ccc(C)cc3)c2)ccn1 [Compound 120]	> 50%	
Cc1ccc(OCCN(C)C(=O)Cn2cc(NC(=O)CCNc3nccnc3Cl)cn2)cc1 [Compound 147]	> 50%	
Cc1ccc(OCCN(C)C(=O)Cn2cc(NC(=O)CCNc3cncc(N)n3)cn2)cc1 [Compound 122]	< 30%	
Cc1ccc(OCCN(C)C(=O)Cn2cc(NC(=O)CCOc3ccccc3Cl)cn2)cc1 [Compound 32]	> 50%	
Cc1ccc(OCCN(C)C(=O)Cn2cc(N(C)C(=O)CCOc3ccccc3)cn2)cc1 [Compound 50]	< 30%	
Cc1ccc(OCCN(C)C(=O)Cn2cc(NC(=O)CCOc3cccc(C(C)C)n3)cn2)cc1 [Compound 108]	< 30%	
CCOc1cc(NCCC(=O)Nc2cnn(CC(=O)N(C)CCOc3ccc(C)cc3)c2)ccn1 [Compound 191]	< 30%	
Cc1ccc(OCCN(C)C(=O)Cn2cc(NC(=O)CCNc3cccnc3C)cn2)cc1 [Compound 174]	30 to 50%	

SMILES	activation at 10 µM [1]	activation at 10 µM
Cc1ccc(OCCN(C)C(=O)Cn2cc(NC(=O)CCOc3cccnc3C)cn2)cc1 [Compound 13]	30 to 50%	
Cc1ccc(OCCN(C)C(=O)Cn2cc(NC(=O)CCNc3ncccn3)cn2)cc1 [Compound 138]	> 50%	
CC(=O)c1cncc(F)c1NCCC(=O)Nc1cnn(CC(=O)N(C)CCOc2ccc(C)cc2)c1 [Compound 232]	> 50%	
Cc1ccc(OCCN(C)C(=O)Cn2cc(NC(=O)COc3cc4ccccn4n3)cn2)cc1 [Compound 289]	> 50%	
Cc1ccc(OCCN(C)C(=O)Cn2cc(NC(=O)CCOc3cccc(N)n3)cn2)cc1 [Compound 103]	> 50%	
Cc1cc(OCCN(C)C(=O)Cn2cc(NC(=O)CCNc3ccnc(F)n3)cn2)no1 [Compound 263]	< 30%	
Cc1ccc(OCCN(C)C(=O)Cn2cc(NC(=O)CCNc3c(F)cncc3C=O)cn2)cc1 [Compound 230, 3-((3-fluoro-5-formylpyridin-4-yl)amino)-N-(1-(2-(methyl(2-(p-tolyloxy)ethyl)amino)-2-oxoethyl)-1H-pyrazol-4-yl)propanamide]	> 50%	
Cc1ccc(OCCN(C)C(=O)Cn2cc(NC(=O)CCOc3cccc(CO)c3)cn2)cc1 [Compound 61]	> 50%	
Cc1ccc(OCCN(C)C(=O)Cn2cc(NC(=O)CCNc3ccnc(C)c3F)cn2)cc1 [Compound 209]	< 30%	
CN(CCOc1ccc(C(F)(F)F)cc1)C(=O)Cn1cc(NC(=O)CCOc2ccccc2F)cn1 [Compound 40]	> 50%	
COc1ccc(OCCN(C)C(=O)Cn2cc(NC(=O)CCNc3ccnc4ncnn34)cn2)cc1 [Compound 124]	30 to 50%	
Cc1ccc(OCCN(C)C(=O)Cn2cc(NC(=O)CCNc3cccnc3C(F)(F)F)cn2)cc1 [Compound 186]	> 50%	
Cc1ccc(OCCN(C)C(=O)Cn2cc(NC(=O)CCNc3cc(F)ncc3F)cn2)cc1 [Compound 143]	< 30%	
Cc1ccc(OCCN(C)C(=O)Cn2cc(NC(=O)CCNc3nc(C)ccc3F)cn2)cc1 [Compound 159]	30 to 50%	
Cc1ccc(OCCN(C)C(=O)Cn2cc(NC(=O)C(C)(C)CNc3ccc(F)nc3C)cn2)cc1 [Compound 221]	< 30%	
Cc1ccc(OCCN(C)C(=O)Cn2cc(NC(=O)CCOc3ccncc3)cn2)cc1 [Compound 9]	> 50%	
Cc1ccc(OCCN(C)C(=O)Cn2cc(NC(=O)CCNc3ncc(F)cc3C)cn2)cc1 [Compound 206]	> 50%	
Cc1ccc(OCCN(C)C(=O)Cn2cc(NC(=O)[C@H](C)CNc3ccnc(F)n3)cn2)cc1 [Compound 225]	30 to 50%	
Cc1ccc(OCCN(C)C(=O)Cn2cc(NC(=O)CCNc3cncc(Cl)n3)cn2)cc1 [Compound 151]	30 to 50%	
Cc1ccc(OCCN(C)C(=O)Cn2cc(NC(=O)CCNc3ccc(OCc4ccccc4)cn3)cn2)cc1 [Compound 165]	< 30%	
Cc1ccc(OCCN(C)C(=O)Cn2cc(NC(=O)CCOc3ccnc(N)n3)cn2)cc1 [Compound 99]	> 50%	
Cc1ccc(OCCN(C)C(=O)Cn2cc(NC(=O)COCc3cccnc3N)cn2)cc1 [Compound 84]	< 30%	

SMILES	activation at 10 µM [1]	activation at 10 µM
Cc1ccc(OCCN(C)C(=O)Cn2cc(NC(=O)CCOc3ccc4c(c3)OCO4)cn2)cc1 [Compound 33]	> 50%	
Cc1ccc(OCCC(=O)Nc2cnn(CC(=O)N(C)CCOc3cccc(OC(F)(F)F)c3)c2)c(F)c1 [Compound 69]	< 30%	
Cc1ccc(OCCN(C)C(=O)Cn2cc(NC(=O)CCOc3cccnc3N)cn2)cc1 [Compound 233]	> 50%	
COc1ccnc(NCCC(=O)Nc2cnn(CC(=O)N(C)CCOc3ccc(C)cc3)c2)c1 [Compound 175]	30 to 50%	
Cc1ccc(OCCN(C)C(=O)Cn2cc(NC(=O)CCNc3ccncc3F)cn2)cc1 [Compound 192]	> 50%	
Cc1ccc(OCC(C)(C)N(C)C(=O)Cn2cc(NC(=O)CCNc3ccnc(F)n3)cn2)cc1 [Compound 256]	> 50%	
Cc1ccc(OCCN(C)C(=O)Cn2cc(NC(=O)CCOc3ccnc(Cl)c3)cn2)cc1 [Compound 8]	> 50%	
Cc1ccc(OCCC(=O)Nc2cnn(CC(=O)N(C)CCOc3ccc(C(F)(F)F)cc3)c2)c(F)c1 [Compound 67]	< 30%	
Cc1ccc(OCCN(C)C(=O)Cn2cc(NC(=O)CCOc3c(F)cncc3F)cn2)cc1 [Compound 18]	> 50%	
Cc1ccc(OCCN(C)C(=O)Cn2cc(NC(=O)CCNc3cc(Cl)ccn3)cn2)cc1 [Compound 145]	< 30%	
Cc1ccc(OCCN(C)C(=O)Cn2cc(NC(=O)CCNc3cc(C)cnc3F)cn2)cc1 [Compound 194]	< 30%	
COc1cccc(OCCC(=O)Nc2cnn(CC(=O)N(C)CCOc3ccc(C)cc3)c2)c1 [Compound 36]	> 50%	
Cc1ccc(OCCN(C)C(=O)Cn2cc(NC(=O)CCNc3cncc(C(F)(F)F)n3)cn2)cc1 [Compound 185]	< 30%	
C=C(C)c1cncc(F)c1NCCC(=O)Nc1cnn(CC(=O)N(C)CCOc2ccc(C)cc2)c1 [Compound 254]	> 50%	
CN(CCc1ccc(Cl)cc1)C(=O)Cn1cc(NC(=O)CCOc2ccccc2)cn1 [Compound 22, N-(1-(2-((4-chlorophenethyl)(methyl)amino)-2-oxoethyl)-1H-pyrazol-4-yl)-3-phenoxypropanamide hydrochloride]		< 30%
COc1ncc(C(F)(F)F)cc1NCCC(=O)Nc1cnn(CC(=O)N(C)CCOc2ccc(C)cc2)c1 [Compound 187]	30 to 50%	
Cc1ccc(OCCN(C)C(=O)Cn2cc(NC(=O)CCNc3ncc(F)cn3)cn2)cc1 [Compound 193]	30 to 50%	
Cc1ccc(OCCN(C)C(=O)Cn2cc(NC(=O)CCNc3nccc(F)n3)cn2)cc1 [Compound 139]	< 30%	
Cc1ccc(OCC(C)N(C)C(=O)Cn2cc(NC(=O)CCOc3ccccc3F)cn2)cc1 (stereo not drawn) [Compound 53]	> 50%	
Cc1nc(F)ccc1NCCC(=O)Nc1cnn(CC(=O)N(C)CCOc2cnn(C)c2)c1 [Compound 238, 3-[(6-fluoro-2-methyl-3-pyridyl)amino]-N-[1-[2-[methyl-[2-(1-methylpyrazol-4-yl)oxyethyl]amino]-2-oxo-ethyl]pyrazol-4-yl]propanamide]	< 30%	
Cc1ccc(OCCN(C)C(=O)Cn2cc(NC(=O)CCNc3ccc(Cl)cn3)cn2)cc1 [Compound 129]	< 30%	
Cc1ccc(OCCN(C)C(=O)Cn2cc(NC(=O)CCNc3ncc(C)cn3)cn2)cc1 [Compound 93]	< 30%	
